According to US6809065B2, “Herbicide containing substituted pyrazole derivative as active ingredient” (SDS Biotech K.K., priority 2001, dated 2004):

Tests used:
Setaria viridis [1] = assay: Upland soil treatment (Test Example 2); format: in vivo; conditions: soil surface treatment next day after sowing, wettable powder, 1 kg active ingredient per hectare, evaluated 21st day after application
Outline: (§1)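 Scores were assigned 21 days after treatment on an index where higher means stronger weed control and, for crops, lower means greater safety. A wettable-powder formulation at 1 kg a.i./ha was applied to the soil surface one day after sowing seeds under about 1 cm of upland soil.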

Stellaria media [2] = assay: Upland soil treatment (Test Example 2); format: in vivo; conditions: soil surface treatment next day after sowing, wettable powder, 1 kg active ingredient per hectare, evaluated 21st day after application
Outline: as §1

Chenopodium album [3] = assay: Upland soil treatment (Test Example 2); format: in vivo; conditions: soil surface treatment next day after sowing, wettable powder, 1 kg active ingredient per hectare, evaluated 21st day after application
Outline: as §1

Digitaria adscendens [4] = assay: Upland soil treatment (Test Example 2); format: in vivo; conditions: soil surface treatment next day after sowing, wettable powder, 1 kg active ingredient per hectare, evaluated 21st day after application
Outline: as §1

Echinochloa spp. = assay: Paddy field treatment (Test Example 3); format: in vivo, Echinochloa crusgalli; conditions: paddy pot, submerged 4 cm, dropped on water surface 10th day after transplantation, 1 kg active ingredient per hectare, evaluated 21st day
Outline: (§2)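 Pot test, flooded paddy soil (4 cm water); weeds sown, 2-leaf rice (Koshihikari) transplanted. Day 10 post-transplant: WP dropped on water, 1 kg a.i./ha. Score index at 21 d after application; higher = stronger herbicidal effect.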

Scirpus juncoides = assay: Paddy field treatment (Test Example 3); format: in vivo; conditions: paddy pot, submerged 4 cm, dropped on water surface 10th day after transplantation, 1 kg active ingredient per hectare, evaluated 21st day
Outline: as §2

Monochoria vaginalis = assay: Paddy field treatment (Test Example 3); format: in vivo; conditions: paddy pot, submerged 4 cm, dropped on water surface 10th day after transplantation, 1 kg active ingredient per hectare, evaluated 21st day
Outline: as §2

Ammannia multiflora = assay: Paddy field treatment (Test Example 3); format: in vivo; conditions: paddy pot, submerged 4 cm, dropped on water surface 10th day after transplantation, 1 kg active ingredient per hectare, evaluated 21st day
Outline: as §2

[5] = system: rice (Oryza sative, variety: Koshihikari); assay: Paddy field treatment (Test Example 3), crop; format: in vivo, Oryza sativa; conditions: transplanted rice two-leaf period, water surface treatment 10th day after transplantation, 1 kg active ingredient per hectare, evaluated 21st day, lower index = higher safety
Outline: as §2

Setaria viridis [6] = assay: Upland field foliage treatment (Test Example 1); format: in vivo; conditions: foliage treatment 14th day after sowing, wettable powder, 1 kg active ingredient per hectare, evaluated 21st day after application
Outline: (§3)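 Read-out is a visual index scored 21 days after treatment. Higher values mean more herbicidal effect on weeds and lower values mean better crop safety. Plants were raised from seed in upland soil and received a leaf-surface spray of 1 kg active ingredient per hectare at 14 days.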

Stellaria media [7] = assay: Upland field foliage treatment (Test Example 1); format: in vivo; conditions: foliage treatment 14th day after sowing, wettable powder, 1 kg active ingredient per hectare, evaluated 21st day after application
Outline: as §3

Chenopodium album [8] = assay: Upland field foliage treatment (Test Example 1); format: in vivo; conditions: foliage treatment 14th day after sowing, wettable powder, 1 kg active ingredient per hectare, evaluated 21st day after application
Outline: as §3

Digitaria adscendens [9] = assay: Upland field foliage treatment (Test Example 1); format: in vivo; conditions: foliage treatment 14th day after sowing, wettable powder, 1 kg active ingredient per hectare, evaluated 21st day after application
Outline: as §3

soybean (Glycine max) [10] = assay: Upland field foliage treatment (Test Example 1), crop; format: in vivo; conditions: foliage treatment 14th day after sowing, 1 kg active ingredient per hectare, evaluated 21st day, lower index = higher safety
Outline: as §3

[11] = system: wheat (Triticum aestivum); assay: as above; format: in vivo; conditions: foliage treatment 14th day after sowing, 1 kg active ingredient per hectare, evaluated 21st day, lower index = higher safety
Outline: as §3

soybean (Glycine max) [12] = assay: Upland soil treatment (Test Example 2), crop; format: in vivo; conditions: soil surface treatment next day after sowing, 1 kg active ingredient per hectare, evaluated 21st day, lower index = higher safety
Outline: as §1

[13] = system: wheat (Triticum aestivum); assay: Upland soil treatment (Test Example 2), crop; format: in vivo; conditions: soil surface treatment next day after sowing, 1 kg active ingredient per hectare, evaluated 21st day, lower index = higher safety
Outline: as §1

| SMILES | Herbicidal activity Setaria viridis (Setaria viridis [1]) | Herbicidal activity Stellaria media (Stellaria media [2]) | Herbicidal activity Chenopodium album (Chenopodium album [3]) | Herbicidal activity Digitaria adscendens (Digitaria adscendens [4]) | Herbicidal activity Echinochloa spp. (Echinochloa spp.) | Herbicidal activity Scirpus juncoides (Scirpus juncoides) | Herbicidal activity Monochoria vaginalis (Monochoria vaginalis) | Herbicidal activity Ammannia multiflora (Ammannia multiflora) | Herbicidal activity Oryza sativa [5] | Herbicidal activity Setaria viridis (Setaria viridis [6]) | Herbicidal activity Stellaria media (Stellaria media [7]) | Herbicidal activity Chenopodium album (Chenopodium album [8]) | Herbicidal activity Digitaria adscendens (Digitaria adscendens [9]) | Herbicidal activity Glycine max (soybean (Glycine max) [10]) | Herbicidal activity Triticum aestivum [11] | Herbicidal activity Glycine max (soybean (Glycine max) [12]) | Herbicidal activity Triticum aestivum [13] |
| --- | --- | --- | --- | --- | --- | --- | --- | --- | --- | --- | --- | --- | --- | --- | --- | --- | --- |
| COC=C(Cn1nc(-c2ccccc2)cc1C)C(=O)OC [Compound 2] | 4 (herbicidal effect of not less than 70% by weight and less than 90% by weight) | 4 (herbicidal effect of not less than 70% by weight and less than 90% by weight) | 4 (herbicidal effect of not less than 70% by weight and less than 90% by weight) | 4 (herbicidal effect of not less than 70% by weight and less than 90% by weight) | 3 (herbicidal effect of not less than 50% by weight and less than 70% by weight) | 3 (herbicidal effect of not less than 50% by weight and less than 70% by weight) | 3 (herbicidal effect of not less than 50% by weight and less than 70% by weight) | 3 (herbicidal effect of not less than 50% by weight and less than 70% by weight) | 0 (herbicidal effect of not less than 0% by weight and less than 10% by weight) | 4 (herbicidal effect of not less than 70% by weight and less than 90% by weight) | 4 (herbicidal effect of not less than 70% by weight and less than 90% by weight) | 4 (herbicidal effect of not less than 70% by weight and less than 90% by weight) | 4 (herbicidal effect of not less than 70% by weight and less than 90% by weight) | 0 (herbicidal effect of not less than 0% by weight and less than 10% by weight) | 0 (herbicidal effect of not less than 0% by weight and less than 10% by weight) | 0 (herbicidal effect of not less than 0% by weight and less than 10% by weight) | 0 (herbicidal effect of not less than 0% by weight and less than 10% by weight) |
| COC=C(Cn1nc(-c2cccc(Cl)c2Cl)c(Cl)c1C)C(=O)OC [Compound 20] | 4 (herbicidal effect of not less than 70% by weight and less than 90% by weight) | 4 (herbicidal effect of not less than 70% by weight and less than 90% by weight) | 5 (herbicidal effect of not less than 90% by weight) | 4 (herbicidal effect of not less than 70% by weight and less than 90% by weight) | 4 (herbicidal effect of not less than 70% by weight and less than 90% by weight) | 4 (herbicidal effect of not less than 70% by weight and less than 90% by weight) | 5 (herbicidal effect of not less than 90% by weight) | 5 (herbicidal effect of not less than 90% by weight) | 0 (herbicidal effect of not less than 0% by weight and less than 10% by weight) | 4 (herbicidal effect of not less than 70% by weight and less than 90% by weight) | 5 (herbicidal effect of not less than 90% by weight) | 5 (herbicidal effect of not less than 90% by weight) | 4 (herbicidal effect of not less than 70% by weight and less than 90% by weight) | 0 (herbicidal effect of not less than 0% by weight and less than 10% by weight) | 0 (herbicidal effect of not less than 0% by weight and less than 10% by weight) | 0 (herbicidal effect of not less than 0% by weight and less than 10% by weight) | 0 (herbicidal effect of not less than 0% by weight and less than 10% by weight) |
| COC=C(Cn1nc(-c2cccc(Cl)c2Cl)cc1C)C(=O)OC [Compound 6] | 4 (herbicidal effect of not less than 70% by weight and less than 90% by weight) | 4 (herbicidal effect of not less than 70% by weight and less than 90% by weight) | 4 (herbicidal effect of not less than 70% by weight and less than 90% by weight) | 4 (herbicidal effect of not less than 70% by weight and less than 90% by weight) | 4 (herbicidal effect of not less than 70% by weight and less than 90% by weight) | 3 (herbicidal effect of not less than 50% by weight and less than 70% by weight) | 3 (herbicidal effect of not less than 50% by weight and less than 70% by weight) | 3 (herbicidal effect of not less than 50% by weight and less than 70% by weight) | 0 (herbicidal effect of not less than 0% by weight and less than 10% by weight) | 4 (herbicidal effect of not less than 70% by weight and less than 90% by weight) | 4 (herbicidal effect of not less than 70% by weight and less than 90% by weight) | 4 (herbicidal effect of not less than 70% by weight and less than 90% by weight) | 4 (herbicidal effect of not less than 70% by weight and less than 90% by weight) | 0 (herbicidal effect of not less than 0% by weight and less than 10% by weight) | 0 (herbicidal effect of not less than 0% by weight and less than 10% by weight) | 0 (herbicidal effect of not less than 0% by weight and less than 10% by weight) | 0 (herbicidal effect of not less than 0% by weight and less than 10% by weight) |
| COC=C(Cn1nc(-c2ccccc2)c(C)c1Cl)C(=O)OC [Compound 45] | 4 (herbicidal effect of not less than 70% by weight and less than 90% by weight) | 4 (herbicidal effect of not less than 70% by weight and less than 90% by weight) | 4 (herbicidal effect of not less than 70% by weight and less than 90% by weight) | 4 (herbicidal effect of not less than 70% by weight and less than 90% by weight) | 4 (herbicidal effect of not less than 70% by weight and less than 90% by weight) | 4 (herbicidal effect of not less than 70% by weight and less than 90% by weight) | 5 (herbicidal effect of not less than 90% by weight) | 4 (herbicidal effect of not less than 70% by weight and less than 90% by weight) | 0 (herbicidal effect of not less than 0% by weight and less than 10% by weight) | 4 (herbicidal effect of not less than 70% by weight and less than 90% by weight) | 5 (herbicidal effect of not less than 90% by weight) | 5 (herbicidal effect of not less than 90% by weight) | 4 (herbicidal effect of not less than 70% by weight and less than 90% by weight) | 1 (herbicidal effect of not less than 10% by weight and less than 30% by weight) | 0 (herbicidal effect of not less than 0% by weight and less than 10% by weight) | 0 (herbicidal effect of not less than 0% by weight and less than 10% by weight) | 0 (herbicidal effect of not less than 0% by weight and less than 10% by weight) |
